Measured values: the supplement of paper PMC9663587

Experiments:
[1] = compound: CC(=O)O[C@H]1C(=O)[C@@]2(C)[C@H]([C@H](OC(=O)c3ccccc3)[C@]3(O)C[C@H](OC(=O)[C@H](O)[C@@H](NC(=O)c4ccccc4)c4ccccc4)C(C)=C1C3(C)C)[C@]1(OC(C)=O)CO[C@@H]1C[C@@H]2O [Paclitaxel]
[2] = compound: T1, CC(=O)c1c(C)c2cnc(Nc3ccc(N4CCN(CCOCCOCCOCCNC(=O)COc5cccc6c5C(=O)N(C5CCC(=O)NC5=O)C6=O)CC4)cn3)nc2n(C2CCCC2)c1=O [BSJ-03-123]
[3] = compound: CC(C)n1nc(-c2ccc3oc(N)nc3c2)c2c(N)ncnc21 [INK128/MLN0128]
[4] = compound: CCN1CCN(Cc2ccc(Nc3ncc(F)c(-c4cc(F)c5nc(C)n(C(C)C)c5c4)n3)nc2)CC1
[5] = compound: T2, CCOc1cc2ncc(C#N)c(Nc3ccc(OCc4ccccn4)c(Cl)c3)c2cc1NC(=O)/C=C/CN(C)C [Neratinib/HKI272]
[6] = compound: CC[C@@H]1C(=O)N(C)c2cnc(Nc3ccc(C(=O)N[C@H]4CC[C@H](N5CCN(CC6CC6)CC5)CC4)cc3OC)nc2N1C(C)C [Volasertib/BI6727]
[7] = compound: T3, CN(C)C(=O)c1cc2cnc(Nc3ccc(N4CCNCC4)cn3)nc2n1C1CCCC1 [LEE011/Ribociclib]
[8] = compound: CN(C)C/C=C/C(=O)Nc1ccc(C(=O)N2CCC[C@@H](Nc3ncc(Cl)c(-c4c[nH]c5ccccc45)n3)C2)cc1 [THZ531]
[9] = compound: CN(C)CC[C@H](CSc1ccccc1)Nc1ccc(S(=O)(=O)NC(=O)c2ccc(N3CCN(Cc4ccccc4-c4ccc(Cl)cc4)CC3)cc2)cc1[N+](=O)[O-] [ABT-737]
[10] = compound: COc1ccc2c(c1)[C@]1(C[C@H]1c1ccc3c(/C=C/c4ccc(CN5C[C@@H](C)O[C@@H](C)C5)cc4)n[nH]c3c1)C(=O)N2
[11] = compound: CS(=O)(=O)N1CCN(Cc2cc3nc(-c4cccc5[nH]ncc45)nc(N4CCOCC4)c3s2)CC1 [Pictilisib/GDC0941]
[12] = compound: Cc1cc(Nc2ncc(Cl)c(Nc3ccccc3S(=O)(=O)C(C)C)n2)c(OC(C)C)cc1C1CCNCC1 [Ceritinib/LDK378]
[13] = compound: Cc1nc(-c2cn3c(n2)-c2ccc(-c4cnn(C(C)(C)C(N)=O)c4)cc2OCC3)n(C(C)C)n1 [Taselisib/GDC0032]
[14] = compound: O=C1NC(=O)[C@@H](c2cn3c4c(cccc24)CCC3)[C@@H]1c1c[nH]c2ccccc12 [Tivantinib/ARQ197]
[15] = compound: C=CC(=O)Nc1ccc(C(=O)Nc2[nH]nc3c2CN(C(=O)N[C@H](CN(C)C)c2ccccc2)C3(C)C)cc1 [YKL-5-124]; experiment: GR value, 72 h; higher = faster growth (1 = untreated, <0 = killing);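 also: breast cancer and non-malignant breast epithelial lines, nine half-log doses, viable cells counted by Hoechst and LIVE/DEAD dye imaging versus time-zero plates and DMSO controls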
[16] = compound: T1, BSJ-03-123; experiment: as above
[17] = compound: CCN1CCN(Cc2ccc(Nc3ncc(F)c(-c4cc(F)c5nc(C)n(C(C)C)c5c4)n3)nc2)CC1; experiment: as above
[18] = compound: T2, Neratinib/HKI272; experiment: as above
[19] = compound: CCc1cnn2c(NCc3ccc[n+]([O-])c3)cc(N3CCCC[C@H]3CCO)nc12; experiment: as above
[20] = compound: T3, LEE011/Ribociclib; experiment: as above
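For GR50, 72 h in this document: breast cancer and non-malignant breast epithelial cell lines, Deep Dye Drop or Dye Drop imaging, nine half-log doses, GR normalized to time-zero plates and DMSO-only controls.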

## EFM19
[1]
  GR50, 72 h: 0.00438 µM
[2]
  GR50, 72 h: 1.23 µM
[3]
  GR50, 72 h: 0.00896 µM
[4]
  GR50, 72 h: 0.025 µM
[5]
  GR50, 72 h: > 3.16 µM
[6]
  GR50, 72 h: 0.0101 µM
[7]
  GR50, 72 h: 1.71 µM
[8]
  GR50, 72 h: 0.466 µM
[9]
  GR50, 72 h: 8.35 µM
[10]
  GR50, 72 h: 0.0156 µM
[11]
  GR50, 72 h: 0.23 µM
[12]
  GR50, 72 h: 5.52 µM
[13]
  GR50, 72 h: 0.00333 µM
[14]
  GR50, 72 h: 0.658 µM
[15]; 0.001 µM
  GR value: 0.518 GR
[15]; 0.003162 µM
  GR value: 0.329 GR
[15]; 0.01 µM
  GR value: 0.259 GR
[15]; 0.03162 µM
  GR value: 0.219 GR
[15]; 0.1 µM
  GR value: 0.134 GR
[15]; 0.3162 µM
  GR value: 0.178 GR
[15]; 1 µM
  GR value: 0.106 GR
[15]; 3.162 µM
  GR value: 0.149 GR
[15]; 10 µM
  GR value: 0.0614 GR
[16]; 0.001 µM
  GR value: 0.951 GR
[16]; 0.003162 µM
  GR value: 0.918 GR
[16]; 0.01 µM
  GR value: 0.806 GR
[16]; 0.03162 µM
  GR value: 0.733 GR
[16]; 0.1 µM
  GR value: 0.717 GR
[16]; 0.3162 µM
  GR value: 0.654 GR
[16]; 1 µM
  GR value: 0.48 GR
[16]; 3.162 µM
  GR value: 0.447 GR
[16]; 10 µM
  GR value: 0.117 GR
[17]; 0.001 µM
  GR value: 0.984 GR
[17]; 0.003162 µM
  GR value: 0.967 GR
[17]; 0.01 µM
  GR value: 0.802 GR
[17]; 0.03162 µM
  GR value: 0.442 GR
[17]; 0.1 µM
  GR value: 0.359 GR
[17]; 0.3162 µM
  GR value: 0.337 GR
[17]; 1 µM
  GR value: 0.327 GR
[17]; 3.162 µM
  GR value: 0.359 GR
[17]; 10 µM
  GR value: 0.269 GR
[18]; 0.0003162 µM
  GR value: 1.07 GR
[18]; 0.001 µM
  GR value: 1.12 GR
[18]; 0.003162 µM
  GR value: 1.12 GR
[18]; 0.01 µM
  GR value: 1.05 GR
[18]; 0.03162 µM
  GR value: 1.06 GR
[18]; 0.1 µM
  GR value: 1.03 GR
[18]; 0.3162 µM
  GR value: 0.933 GR
[18]; 1 µM
  GR value: 0.811 GR
[18]; 3.162 µM
  GR value: 0.688 GR
[19]; 0.0001 µM
  GR value: 1.1 GR
[19]; 0.0003162 µM
  GR value: 1.09 GR
[19]; 0.001 µM
  GR value: 1.15 GR
[19]; 0.003162 µM
  GR value: 1.15 GR
[19]; 0.01 µM
  GR value: 1.05 GR
[19]; 0.03162 µM
  GR value: 0.509 GR
[19]; 0.1 µM
  GR value: -0.295 GR
[19]; 0.3162 µM
  GR value: -0.448 GR
[19]; 1 µM
  GR value: -0.534 GR
[20]; 0.001 µM
  GR value: 0.892 GR
[20]; 0.003162 µM
  GR value: 0.802 GR
[20]; 0.01 µM
  GR value: 0.825 GR
[20]; 0.03162 µM
  GR value: 0.914 GR
[20]; 0.1 µM
  GR value: 0.688 GR
[20]; 0.3162 µM
  GR value: 0.61 GR
[20]; 1 µM
  GR value: 0.6 GR
[20]; 3.162 µM
  GR value: 0.415 GR
[20]; 10 µM
  GR value: 0.355 GR
